Test results: ChEMBL document CHEMBL1142477, “Synergistic interaction between p-glycoprotein modulators and epirubicine on resistant cancer cells” (Bioorg Med Chem, 2008)
Converted amounts (≈) assume the structure as drawn.

How the values were obtained:
[1] = target: T1, ATP-dependent translocase ABCB1 (Homo sapiens, UniProt P08183); experiment: Reversal of P-glycoprotein-mediated multidrug resistance in human MDR1 gene transfected mouse L5178 cells assessed as mean fluorescence intensity at 4 ug/ml by rhodamine-123 exclusion test; assay type: cell-based
T1 sequence (P08183 whole entry): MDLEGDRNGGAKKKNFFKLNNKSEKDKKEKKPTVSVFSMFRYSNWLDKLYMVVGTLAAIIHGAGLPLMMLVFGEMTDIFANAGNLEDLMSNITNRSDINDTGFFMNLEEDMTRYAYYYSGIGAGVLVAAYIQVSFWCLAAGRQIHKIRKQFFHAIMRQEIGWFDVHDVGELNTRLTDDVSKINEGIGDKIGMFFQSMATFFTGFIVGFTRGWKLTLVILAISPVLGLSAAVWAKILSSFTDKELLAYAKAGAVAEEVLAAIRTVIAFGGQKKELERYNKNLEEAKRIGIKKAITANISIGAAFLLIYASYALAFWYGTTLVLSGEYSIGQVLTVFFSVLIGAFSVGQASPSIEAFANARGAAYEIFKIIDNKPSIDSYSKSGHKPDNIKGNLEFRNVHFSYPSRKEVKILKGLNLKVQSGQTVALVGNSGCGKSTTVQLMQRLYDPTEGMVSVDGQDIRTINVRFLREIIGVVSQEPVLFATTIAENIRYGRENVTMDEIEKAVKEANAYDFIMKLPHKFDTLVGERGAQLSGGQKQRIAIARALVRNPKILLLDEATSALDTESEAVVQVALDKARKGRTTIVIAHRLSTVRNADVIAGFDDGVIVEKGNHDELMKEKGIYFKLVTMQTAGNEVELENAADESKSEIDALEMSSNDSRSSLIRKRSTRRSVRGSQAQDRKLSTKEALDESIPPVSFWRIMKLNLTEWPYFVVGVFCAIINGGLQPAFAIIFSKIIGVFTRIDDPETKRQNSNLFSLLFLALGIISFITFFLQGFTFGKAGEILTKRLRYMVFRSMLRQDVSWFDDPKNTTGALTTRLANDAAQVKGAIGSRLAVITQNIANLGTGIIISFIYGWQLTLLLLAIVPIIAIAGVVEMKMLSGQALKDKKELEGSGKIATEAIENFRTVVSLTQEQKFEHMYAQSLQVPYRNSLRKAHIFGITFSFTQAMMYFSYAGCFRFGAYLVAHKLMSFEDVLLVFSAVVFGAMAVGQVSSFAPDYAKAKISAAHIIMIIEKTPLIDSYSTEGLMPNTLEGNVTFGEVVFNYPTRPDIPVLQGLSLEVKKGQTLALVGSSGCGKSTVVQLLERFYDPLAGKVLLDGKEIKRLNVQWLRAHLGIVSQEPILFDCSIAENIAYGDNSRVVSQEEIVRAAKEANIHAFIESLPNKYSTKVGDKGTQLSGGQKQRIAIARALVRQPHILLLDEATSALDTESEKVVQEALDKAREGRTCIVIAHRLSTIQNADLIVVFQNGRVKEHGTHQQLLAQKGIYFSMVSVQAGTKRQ

[2] = target: T1, ATP-dependent translocase ABCB1; experiment: Reversal of P-glycoprotein-mediated multidrug resistance in human MDR1 gene transfected mouse L5178 cells assessed as fluorescence activity ratio at 40 ug/ml by flow cytometry; assay type: cell-based
[3] = Lipophilicity, log P of the compound; assay type: physicochemical; conditions: octanol/water
[4] = target: T1, ATP-dependent translocase ABCB1; experiment: Reversal of P-glycoprotein-mediated multidrug resistance in human MDR1 gene transfected mouse L5178 cells assessed as fluorescence activity ratio at 4 ug/ml by rhodamine-123 exclusion test; assay type: cell-based
[5] = Potentiation of epirubicin-induced cytotoxicity against mouse L5178 cells assessed as fractional inhibitory index by checkerboard microplate method; assay type: functional
[6] = target: T1, ATP-dependent translocase ABCB1; experiment: Reversal of P-glycoprotein-mediated multidrug resistance in human MDR1 gene transfected mouse L5178 cells assessed as mean fluorescence intensity at 40 ug/ml by rhodamine-123 exclusion test; assay type: cell-based
[7] = Antiproliferative activity against multidrug-resistant mouse L5178 cells after 72 hrs MTT assay; assay type: functional; conditions: L5178, 72 h, read-out: ID50 (the source's name)
[8] = Antiproliferative activity against parental mouse L5178 cells after 72 hrs MTT assay; assay type: functional; conditions: L5178, 72 h, read-out: ID50 (the source's name)

SMILES	Flu intensity [1]	Ratio [2]	logP [3]	Ratio [4]	fractional inhibitory concentration index (FICI) [5]	Flu intensity [6]	IC50 [7] [µg/mL]	IC50 [8] [µg/mL]
C=C1[C@@H](OC(=O)c2ccccc2)[C@@H](OC(C)=O)[C@@H](OC(C)=O)C(C)(C)/C=C/[C@H](C)C(=O)[C@@]2(OC(C)=O)C[C@@](C)(OC(=O)c3ccccc3)[C@H](OC(C)=O)[C@@H]2[C@H]1OC(C)=O [EUPHOTUCKEYANOL]	1127.4	106.2	6.7	81	0.08	1476.7	22.8 (≈ 27.8 µM)	45 (≈ 55 µM)
C/C1=C\[C@@H]2[C@H](CC[C@@]3(C)O[C@@H]3[C@H]3[C@@H](O)[C@@H](C)C[C@]3(OC(=O)/C=C/c3ccccc3)C1=O)C2(C)C [JOLKINOL B]	–	–	5.8	–	–	–	–	–
C/C1=C\[C@@H]2[C@H](CC[C@@]3(C)O[C@@H]3[C@H]3[C@@H](O)[C@@H](C)C[C@]3(OC(=O)c3ccccc3)C1=O)C2(C)C [LATILAGASCENE F]	–	–	5.3	–	–	–	–	–
CC(=O)OC[C@H]1C[C@]2(OC(=O)/C=C/c3ccccc3)C(=O)/C(C)=C/[C@@H]3[C@H](CC[C@@]4(C)O[C@@H]4[C@H]2[C@H]1O)C3(C)C [LATILAGASCENE A]	–	–	5.5	–	–	–	–	–
C/C1=C\[C@@H]2[C@H](CC[C@@]3(C)O[C@@H]3[C@H]3[C@@H](O)[C@@H](CO)C[C@]3(OC(=O)/C=C/c3ccccc3)C1=O)C2(C)C [LATILAGASCENE B]	–	–	4.8	–	–	–	–	–
CC1(C)[C@@H]2/C=C(\CO)C(=O)[C@@]3(OC(=O)/C=C/c4ccccc4)C[C@H](COC(=O)c4ccccc4)[C@H](O)[C@@H]3[C@H]3O[C@]3(C)CC[C@@H]21 [LATILAGASCENE E]	–	–	5.9	–	–	–	–	–
C/C1=C\[C@@H]2[C@H](CC[C@@]3(C)O[C@@H]3[C@H]3[C@@H](O)[C@@H](COC(=O)c4ccccc4)C[C@]3(OC(=O)/C=C/c3ccccc3)C1=O)C2(C)C [LATILAGASCENE D]	–	–	7.2	–	–	–	–	–
CCCC(=O)OC[C@H]1C[C@]2(OC(=O)/C=C/c3ccccc3)C(=O)/C(C)=C/[C@@H]3[C@H](CC[C@@]4(C)O[C@@H]4[C@H]2[C@H]1OC(=O)CCC)C3(C)C [LATILAGASCENE I]	433.4	54.2	8	62.4	0.14	376.5	17.3 (≈ 27.9 µM)	23.9 (≈ 38.5 µM)
C=C1[C@@H](OC(=O)C(C)C)[C@@H](OC(C)=O)C(=O)C(C)(C)/C=C/[C@H](C)[C@H](OC(=O)c2ccccc2)[C@@]2(O)C[C@H](C)[C@H](OC(C)=O)[C@@H]2[C@H]1OC(C)=O [TUCKEYANOL B]	347.6	97.3	4	25	0.25	1353.2	12 (≈ 17.5 µM)	19.4 (≈ 28.3 µM)
CC(=O)OC[C@H]1C[C@]2(OC(=O)/C=C/c3ccccc3)C(=O)/C(C)=C/[C@@H]3[C@H](CC[C@@]4(C)O[C@@H]4[C@H]2[C@H]1OC(C)=O)C3(C)C [LATILAGASCENE C]	–	–	6.2	–	–	–	–	–
C=C1[C@@H](OC(=O)C(C)CC)[C@@H](OC(C)=O)C(=O)C(C)(C)/C=C/[C@H](C)[C@H](OC(=O)c2ccccc2)[C@@]2(O)C[C@H](C)[C@H](OC(C)=O)[C@@H]2[C@H]1OC(C)=O (stereo not given in full) [TUCKEYANOL A]	554	98.9	4.5	39.8	0.18	1375.6	17.6 (≈ 25.2 µM)	25.8 (≈ 36.9 µM)
CCC(=O)OC[C@H]1C[C@]2(OC(=O)/C=C/c3ccccc3)C(=O)/C(C)=C/[C@@H]3[C@H](CC[C@@]4(C)O[C@@H]4[C@H]2[C@H]1OC(=O)CC)C3(C)C [LATILAGASCENE H]	427.4	78	6.9	61.6	0.07	541.3	17.5 (≈ 29.5 µM)	25.3 (≈ 42.7 µM)
CC(=O)O[C@H]1[C@@H](COC(=O)c2ccccc2)C[C@]2(OC(=O)/C=C/c3ccccc3)C(=O)/C(C)=C/[C@@H]3[C@H](CC[C@@]4(C)O[C@@H]4[C@@H]12)C3(C)C [LATILAGASCENE G]	478.3	71.6	7.9	68.9	0.14	496.6	28 (≈ 44.7 µM)	32.2 (≈ 51.4 µM)
